{"source": "ChEMBL document CHEMBL3351221", "about": "“Synthetic derivatives of aromatic abietane diterpenoids and their biological activities” (Eur J Med Chem, 2014)", "key": {"Staphylococcus aureus [1]": {"test_system": "Staphylococcus aureus", "test": "Antimicrobial activity against methicillin-resistant Staphylococcus aureus", "type": "functional"}, "Enterococcus": {"test_system": "Enterococcus", "test": "Antimicrobial activity against Vancomycin-resistant Enterococcus", "type": "functional"}, "Escherichia coli": {"test_system": "Escherichia coli", "test": "Antimicrobial activity against Escherichia coli", "type": "functional"}, "Pseudomonas fluorescens": {"test_system": "Pseudomonas fluorescens", "test": "Antimicrobial activity against Pseudomonas fluorescens", "type": "functional"}, "HepG2": {"test_system": "HepG2", "test": "Cytotoxicity against human HepG2 cells", "type": "functional, cell-based"}, "SMMC-7721": {"test_system": "SMMC-7721", "test": "Cytotoxicity against human SMMC7721 cells", "type": "functional, cell-based"}, "Staphylococcus aureus [2]": {"test_system": "Staphylococcus aureus", "test": "Antimicrobial activity against Staphylococcus aureus", "type": "functional"}, "Bacillus subtilis": {"test_system": "Bacillus subtilis", "test": "Antimicrobial activity against Bacillus subtilis", "type": "functional"}, "Mus musculus [3]": {"test_system": "Mus musculus", "test": "Gastroprotective activity in mouse assessed as reduction in HCl/EtOH-induced gastric lesions at 10 mg/kg", "type": "functional", "conditions": "Stomach"}, "MCF7": {"test_system": "MCF7", "test": "Cytotoxicity against human MCF7 cells", "type": "functional, cell-based"}, "C6": {"test_system": "C6", "test": "Cytotoxicity against rat C6 cells", "type": "functional, cell-based"}, "A549": {"test_system": "A549", "test": "Cytotoxicity against human A549 cells", "type": "functional, cell-based"}, "[4]": {"test": "Antioxidant activity assessed as DPPH radical scavenging activity", "type": "physicochemical"}, "MRC5": {"test_system": "MRC5", "test": "Cytotoxicity against human MRC5 cells", "type": "cell-based"}, "Mus musculus [5]": {"test_system": "Mus musculus", "test": "Gastroprotective activity in mouse assessed as reduction in HCl/EtOH-induced gastric lesions at 100 mg/kg", "type": "functional", "conditions": "Stomach"}, "AGS": {"test_system": "AGS", "test": "Cytotoxicity against human AGS cells", "type": "cell-based"}, "Leishmania infantum": {"test_system": "Leishmania infantum", "test": "Antimicrobial activity against Leishmania infantum", "type": "functional, organism-based"}, "Leishmania braziliensis": {"test_system": "Leishmania braziliensis", "test": "Antimicrobial activity against Leishmania braziliensis", "type": "functional, organism-based"}, "Fusarium oxysporum": {"test_system": "Fusarium oxysporum", "test": "Antimicrobial activity against Fusarium oxysporum assessed as inhibition of microbial growth at 50 ug/ml", "type": "functional"}, "[6]": {"test": "Cytotoxicity against human PC3 cells", "type": "functional, cell-based", "conditions": "PC-3"}, "[7]": {"test": "Cytotoxicity against human Hey-1B cells", "type": "functional, cell-based"}, "Fusarium graminearum": {"test_system": "Fusarium graminearum", "test": "Antimicrobial activity against Fusarium graminearum assessed as inhibition of microbial growth at 50 ug/ml", "type": "functional"}, "Rattus norvegicus": {"test_system": "Rattus norvegicus", "test": "Antiulcer activity in rat assessed as inhibition of pepsin activity at 100 mg/kg", "type": "functional", "conditions": "Rattus norvegicus"}, "[8]": {"test": "Cytotoxicity against human HL60 cells", "type": "functional, cell-based", "conditions": "HL-60"}}}
{"smiles": "CC(C)c1cc2c(cc1O)[C@@]1(C)CCCC(C)(C)[C@@H]1[C@H](O)C2", "values": [{"measurement": "MIC", "setting": "Staphylococcus aureus [1]", "result": 4, "unit": "µg/mL"}, {"measurement": "MIC", "setting": "Enterococcus", "result": 4, "unit": "µg/mL"}]}
{"smiles": "CC(C)c1ccc2c(c1)CC[C@H]1[C@](C)(C(=O)N/N=C/c3cc(Cl)ccc3O)CCC[C@]21C", "values": [{"measurement": "MIC", "setting": "Escherichia coli", "result": 3.9, "unit": "µg/mL"}, {"measurement": "MIC", "setting": "Pseudomonas fluorescens", "result": 3.9, "unit": "µg/mL"}]}
{"smiles": "CC(C)c1ccc2c(c1)CC[C@H]1[C@](C)(NC(N)=O)CCC[C@]21C", "values": [{"measurement": "IC50", "setting": "HepG2", "result": 1.21, "unit": "µg/mL"}, {"measurement": "IC50", "setting": "SMMC-7721", "result": 8.8, "unit": "µM"}]}
{"smiles": "CC(C)c1ccc2c(c1)CC[C@H]1[C@](C)(CNCc3ccccc3)CCC[C@]21C.Cl", "values": [{"measurement": "MIC", "setting": "Escherichia coli", "result": 250, "unit": "µg/mL"}, {"measurement": "MIC", "setting": "Staphylococcus aureus [2]", "result": 7.81, "unit": "µg/mL"}]}
{"smiles": "CC(C)c1ccc2c(c1)CC[C@H]1[C@](C)(C(=O)N/N=C/c3ccc([N+](=O)[O-])o3)CCC[C@]21C", "values": [{"measurement": "MIC", "setting": "Escherichia coli", "result": 3.9, "unit": "µg/mL"}, {"measurement": "MIC", "setting": "Bacillus subtilis", "result": 1.9, "unit": "µg/mL"}, {"measurement": "MIC", "setting": "Pseudomonas fluorescens", "result": 3.9, "unit": "µg/mL"}, {"measurement": "MIC", "setting": "Staphylococcus aureus [2]", "result": 1.9, "unit": "µg/mL"}]}
{"smiles": "CC(C)c1cc2c(c(O)c1O)[C@@]1(C)CCCC(C)(C)[C@@H]1CC2=O", "note": "[DEMETHYLCRYPTOJAPONOL]", "values": [{"measurement": "MIC", "setting": "Staphylococcus aureus [1]", "result": 4, "unit": "µg/mL"}, {"measurement": "MIC", "setting": "Enterococcus", "result": 4, "unit": "µg/mL"}]}
{"smiles": "CC(C)c1ccc2c(c1)CC[C@H]1[C@](C)(C[N+](CCO)(CCO)Cc3ccccc3)CCC[C@]21C.[Cl-]", "values": [{"measurement": "MIC", "setting": "Escherichia coli", "result": 250, "unit": "µg/mL"}, {"measurement": "MIC", "setting": "Staphylococcus aureus [2]", "result": 7.81, "unit": "µg/mL"}]}
{"smiles": "CC(C)c1cc2c(cc1[N+](=O)[O-])[C@@]1(C)CCC[C@@](C)(CNC(=O)c3ccccc3)[C@@H]1CC2=O", "values": [{"measurement": "IC50", "setting": "HepG2", "result": 67.9, "unit": "µg/mL"}]}
{"smiles": "COC(=O)[C@]12CCCC(C)(C)[C@@H]1CCc1cc(C(C)C)c(OC(=O)Cc3cc4ccccc4[nH]3)c(OC(=O)Cc3cc4ccccc4[nH]3)c12", "values": [{"measurement": "inhibition in vivo at 10 mg/kg", "setting": "Mus musculus [3]", "result": 73, "unit": "%"}]}
{"smiles": "COc1ccc(/C=N/C[C@]2(C)CCC[C@]3(C)c4ccc(C(C)C)cc4CC[C@@H]23)cc1", "values": [{"measurement": "IC50", "setting": "MCF7", "result": 10.7, "unit": "µM"}, {"measurement": "IC50", "setting": "SMMC-7721", "result": 6.65, "unit": "µM"}, {"measurement": "IC50", "setting": "C6", "result": 810, "unit": "nM"}, {"measurement": "IC50", "setting": "A549", "result": 750, "unit": "nM"}]}
{"smiles": "COc1ccc(/C=N/C[C@]2(C)CCC[C@]3(C)c4ccc(C(C)C)cc4CC[C@@H]23)c(O)c1", "values": [{"measurement": "IC50", "setting": "MCF7", "result": 10.7, "unit": "µM"}, {"measurement": "IC50", "setting": "SMMC-7721", "result": 6.65, "unit": "µM"}, {"measurement": "IC50", "setting": "C6", "result": 810, "unit": "nM"}, {"measurement": "IC50", "setting": "A549", "result": 750, "unit": "nM"}]}
{"smiles": "CCCOC(=O)[C@]12CCCC(C)(C)[C@@H]1CCc1cc(C(C)C)c(OC)c(OC(=O)CCC)c12", "values": [{"measurement": "inhibition in vivo at 10 mg/kg", "setting": "Mus musculus [3]", "result": 73, "unit": "%"}]}
{"smiles": "O=C1O[C@H]([C@@H](O)CO)C(O)=C1O", "note": "[ASCORBIC ACID]", "values": [{"measurement": "IC50", "setting": "[4]", "result": 236, "unit": "mg/L"}]}
{"smiles": "COc1ccc(NC(=O)[C@]2(C)CCC[C@]3(C)c4ccc(C(C)C)cc4CC[C@@H]23)cc1", "values": [{"measurement": "IC50", "setting": "MRC5", "result": "> 1", "unit": "mM"}, {"measurement": "inhibition in vivo at 100 mg/kg", "setting": "Mus musculus [5]", "result": 67, "unit": "%"}, {"measurement": "IC50", "setting": "AGS", "result": "> 1", "unit": "mM"}]}
{"smiles": "CC(C)c1cc2c(c(O)c1O)[C@@]1(C)CCCC(C)(C)C1=CC2=O", "note": "[SALVINOLONE]", "values": [{"measurement": "MIC", "setting": "Staphylococcus aureus [1]", "result": 4, "unit": "µg/mL"}, {"measurement": "MIC", "setting": "Enterococcus", "result": 4, "unit": "µg/mL"}]}
{"smiles": "COC(=O)[C@@]1(C)CCC[C@]2(C)c3cc(O)c(C(C)C)cc3CC[C@@H]12", "values": [{"measurement": "IC50", "setting": "Leishmania infantum", "result": 14, "unit": "µM"}, {"measurement": "IC50", "setting": "Leishmania braziliensis", "result": 14, "unit": "µM"}]}
{"smiles": "Cc1c(OCC(F)(F)F)ccnc1C[S+]([O-])c1nc2ccccc2[nH]1", "note": "(configuration not stated) [LANSOPRAZOLE]", "values": [{"measurement": "inhibition in vivo at 10 mg/kg", "setting": "Mus musculus [3]", "result": 64, "unit": "%"}]}
{"smiles": "CC(C)c1ccc2c(c1)CC[C@H]1[C@](C)(c3nnc4s/c(=C\\c5ccccc5)c(=O)n34)CCC[C@]21C", "values": [{"measurement": "inhibition at 50 µg/mL", "setting": "Fusarium oxysporum", "result": 51.9, "unit": "%"}]}
{"smiles": "CC(C)c1cc2c(cc1O)[C@@]1(C)CCCC(C)(C)[C@@H]1C(=O)C2", "values": [{"measurement": "MIC", "setting": "Staphylococcus aureus [1]", "result": 4, "unit": "µg/mL"}, {"measurement": "MIC", "setting": "Enterococcus", "result": 4, "unit": "µg/mL"}]}
{"smiles": "CC(C)c1ccc2c(c1)CC[C@H]1[C@](C)(C(=O)Nc3cccc([N+](=O)[O-])c3)CCC[C@]21C", "values": [{"measurement": "IC50", "setting": "MRC5", "result": "> 1", "unit": "mM"}, {"measurement": "inhibition in vivo at 100 mg/kg", "setting": "Mus musculus [5]", "result": 67, "unit": "%"}, {"measurement": "IC50", "setting": "AGS", "result": "> 1", "unit": "mM"}]}
{"smiles": "CC(C)c1cc2c(cc1[N+](=O)[O-])[C@@]1(C)CCC[C@@](C)(CNC(=O)c3ccccc3Cl)[C@@H]1CC2", "values": [{"measurement": "IC50", "setting": "[6]", "result": 5.7, "unit": "µg/mL"}, {"measurement": "IC50", "setting": "[7]", "result": 11.3, "unit": "µg/mL"}]}
{"smiles": "COC(=O)[C@@]1(C)CCC[C@]2(C)c3cc(O)c(C(C)(C)O)cc3CC[C@@H]12", "values": [{"measurement": "IC50", "setting": "Leishmania infantum", "result": 14, "unit": "µM"}, {"measurement": "IC50", "setting": "Leishmania braziliensis", "result": 14, "unit": "µM"}]}
{"smiles": "CC(C)c1ccc2c(c1)CC[C@H]1[C@](C)(c3nnc4s/c(=C\\c5ccc(O)cc5)c(=O)n34)CCC[C@]21C", "values": [{"measurement": "inhibition at 50 µg/mL", "setting": "Fusarium graminearum", "result": 70.9, "unit": "%"}]}
{"smiles": "CC(C)c1cc2c(cc1S(=O)(=O)O)[C@@]1(C)CCC[C@@](C)(C(=O)O)[C@@H]1CC2", "values": [{"measurement": "inhibition in vivo at 100 mg/kg", "setting": "Rattus norvegicus", "result": 92, "unit": "%"}]}
{"smiles": "COC(=O)C[C@H](NC(=O)[C@]1(C)CCC[C@]2(C)c3ccc(C(C)C)cc3CC[C@@H]12)C(=O)OC", "values": [{"measurement": "IC50", "setting": "[8]", "result": 2300, "unit": "nM"}]}
{"smiles": "CC(C)c1ccc2c(c1)CC[C@H]1[C@](C)(C[N+](C)(C)C)CCC[C@]21C.COS(=O)(=O)[O-]", "values": [{"measurement": "MIC", "setting": "Escherichia coli", "result": 250, "unit": "µg/mL"}, {"measurement": "MIC", "setting": "Staphylococcus aureus [2]", "result": 7.81, "unit": "µg/mL"}]}
{"smiles": "COC(=O)[C@H](C)NC(=O)[C@]1(C)CCC[C@]2(C)c3ccc(C(C)C)cc3CC[C@@H]12", "values": [{"measurement": "IC50", "setting": "[8]", "result": 2300, "unit": "nM"}]}
